Where a name gives a salt, the structure may show the parent alone. Positions of bridges follow the written chain, without caps; N, C: chain ends. Non-standard residues stand in square brackets, D forms with d. Residues, ends and D or L forms follow the SMILES beside them. Orn = NCCC[C@H](N)C(=O)O; Mpa = O=C(O)CCS
Experiment: in vitro
Details: rat, gh3-tre-luc cells

| Compound | CC50 at 24 h (AC50 (uM) modified / 1000) [µM] | further results |
| --- | --- | --- |
| CC[C@H]1OC(=O)[C@H](C)[C@@H](O[C@H]2C[C@@](C)(OC)[C@@H](O)[C@H](C)O2)[C@H](C)[C@@H](O[C@@H]2O[C@H](C)C[C@H](N(C)C)[C@H]2O)[C@](C)(OC)C[C@@H](C)C(=O)[C@H](C)[C@@H](O)[C@]1(C)O [Clarithromycin] | > 90 | – |
| CCOC(=O)C1(c2ccccc2)CCN(CCC(C#N)(c2ccccc2)c2ccccc2)CC1 [Diphenoxylate hydrochloride] | – | CC50 at 24 h (AC50 (uM) modified / 1000, Tox21_110001=Tox21_112593, viability, 1 nM T3 present, 24 h): > 50 µM; CC50 at 24 h (AC50 (uM) modified / 1000, Tox21_110001=Tox21_112825, viability, 1 nM T3 present, 24 h): 19.7 µM |
| CCc1ccc(O)c(OC)c1 [4-Ethyl-2-methoxyphenol] | > 90 | – |
| CNC(=S)NN [N-Methylhydrazinecarbothioamide] | 52.5 | – |
| CN(C)C(Cc1ccccc1)c1ccccc1 (centres unmarked) [N,N-Dimethyl-1,2-diphenylethanamine] | – | CC50 at 24 h (AC50 (uM) modified / 1000, Tox21_110001=Tox21_112703, viability, 1 nM T3 present, 24 h): > 50 µM |
| O=C(CS)OCCOC(=O)CS [Ethane-1,2-diyl bis(sulfanylacetate)] | > 90 | – |
| O=C(NCCCN1CCOCC1)c1ccc(Cl)cc1 [Eprobemide] | > 50 | – |
| CC(C)CCCCCCOC(=O)c1ccc(C(=O)OCCCCCCC(C)C)c(C(=O)OCCCCCCC(C)C)c1 [Triisononyl trimellitate] | > 90 | – |
| CS(=O)(=O)NC(=O)c1cc(Oc2ccc(C(F)(F)F)cc2Cl)ccc1[N+](=O)[O-] [Fomesafen] | > 90 | – |
| NC(N)=NCCCCN=C(N)N [1,1'-Tetramethylenediguanidine sulfate] | > 50 | – |
| Cc1oc(-c2ccccc2)nc1CCOc1ccc(C[C@H](Nc2ccccc2C(=O)c2ccccc2)C(=O)O)cc1 [Farglitazar] | 25 | – |
| CC(C)(N)CO [2-Amino-2-methylpropan-1-ol] | > 90 | – |
| CCCCNS(=O)(=O)c1ccc(C)cc1 [N-Butyl-p-toluenesulfonamide] | > 90 | – |
| CC1(C)C(=O)N(Cl)C(=O)N1Cl [1,3-Dichloro-5,5-dimethylhydantoin] | > 90 | – |
| CC(=O)[C@]1(O)Cc2c(O)c3c(c(O)c2[C@@H](O[C@H]2C[C@H](N)[C@H](O)[C@H](C)O2)C1)C(=O)c1ccccc1C3=O [Idarubicin hydrochloride] | 0.162 | – |
| COc1cc(OC)nc(Oc2cccc(Oc3nc(OC)cc(OC)n3)c2C(=O)O)n1 [Bispyribac-sodium] | > 90 | – |
| CC(C)=CCC[C@@](C)(O)[C@H]1CC=C(C)CC1 [Bisabolol] | > 50 | – |
| C=CC(=O)NCNC(=O)C=C [N,N'-Methylenebisacrylamide] | > 90 | – |
| CC(=O)OCC1=C(C(=O)O)N2C(=O)[C@@H](NC(=O)CSc3ccncc3)[C@H]2SC1 [Cephapirin sodium] | > 50 | – |
| CCOC(=O)O[C@]1(C(=O)OCCl)CC[C@H]2[C@@H]3CCC4=CC(=O)C=C[C@]4(C)[C@H]3[C@@H](O)C[C@@]21C [Loteprednol etabonate] | > 50 | – |
| OCc1ccccc1O [Salicyl alcohol] | > 50 | – |
| COC(=O)c1sccc1S(N)(=O)=O [Methyl 3-sulfamoylthiophene-2-carboxylate] | > 90 | – |

| Compound | CC50 at 24 h (AC50 (uM) modified / 1000) [µM] | further results |
| --- | --- | --- |
| CCOCCOCCOCCO [2-[2-(2-Ethoxyethoxy)ethoxy]ethanol] | > 90 | – |
| C1CCC(C2CCCCC2)CC1 [Dicyclohexyl] | – | CC50 at 24 h (AC50 (uM) modified / 1000, Tox21_110001=Tox21_302104, viability, 1 nM T3 present, 24 h): > 90 µM |
| C[C@H]1C[C@@H]2[C@H]([C@@H](O)C[C@@]3(C)[C@H]2CC[C@]3(O)C(=O)COC(=O)CCC(=O)O)[C@@]2(C)C=CC(=O)C=C12 [Methylprednisolone succinate] | > 50 | – |
| O=C(O)CSCC(=O)NC1CCSC1=O (centres unmarked) [Erdosteine] | > 50 | – |
| CCN(CC)C(=O)Nc1ccc(OCC(O)CNC(C)(C)C)c(C(C)=O)c1 (centres unmarked) [Celiprolol hydrochloride] | > 50 | – |
| CC1=CC[C@@H](C(C)(C)O)CC1 [alpha-Terpineol] | > 90 | – |
| OC(c1ccccc1)(c1ccccc1)C1CCNCC1 [Azacyclonol] | – | CC50 at 24 h (AC50 (uM) modified / 1000, Tox21_110001=Tox21_110399, viability, 1 nM T3 present, 24 h): > 20 µM |
| COc1c(C(C)(C)C)cc([N+](=O)[O-])c(C)c1[N+](=O)[O-] [Musk ambrette] | – | CC50 at 24 h (AC50 (uM) modified / 1000, Tox21_110001=Tox21_201195, viability, 1 nM T3 present, 24 h): > 90 µM |
| FCOC(C(F)(F)F)C(F)(F)F [Sevoflurane] | > 50 | – |
| CC[C@H](C)[C@H]1O[C@]2(CC[C@@H]1C)C[C@@H]1C[C@@H](C/C=C(\C)[C@@H](O[C@H]3C[C@H](OC)[C@@H](O[C@H]4C[C@H](OC)[C@@H](O)[C@H](C)O4)[C@H](C)O3)[C@@H](C)/C=C/C=C3\CO[C@@H]4[C@H](O)C(C)=C[C@@H](C(=O)O1)[C@]34O)O2 [Ivermectin B1a] | 2.85 | – |
| Cc1cc2nc(N)sc2cc1C [2-Amino-5,6-dimethylbenzothiazole] | > 90 | – |
| C=CCCCCCCCCCCCCCCCC [1-Octadecene] | > 5 | – |
| CCCCCCCCCCCC(=O)N(CC)CC [N,N-Diethyldodecanamide] | > 90 | – |
| N#Cc1cccc(C#N)c1 [1,3-Benzenedicarbonitrile] | > 90 | – |
| O=C(O)c1nc(Cl)ccc1Cl [Clopyralid] | > 90 | – |
| N[C@@H](CSCC(=O)O)C(=O)O [Carbocysteine] | > 50 | – |
| CCC/C=C/C=O [(2E)-2-Hexenal] | > 90 | – |
| O=C1CCCCCCCCCCC1 [Cyclododecanone] | > 90 | – |
| N[C@H]1C(O)O[C@H](CO)[C@@H](O)[C@@H]1O (some centres unmarked) [Glucosamine hydrochloride] | > 50 | – |
| c1ccc2sc(SSc3nc4ccccc4s3)nc2c1 [2,2'-Dithiobisbenzothiazole] | > 50 | – |
| CCCCCCCC/C=C/CCCCCCCC(=O)OCCO [Polyoxyethylene monoleate] | > 100 | – |
| CCCCCCCCCCCCCl [1-Chlorododecane] | – | CC50 at 24 h (AC50 (uM) modified / 1000, Tox21_110001=Tox21_201790, viability, 1 nM T3 present, 24 h): > 90 µM |

| Compound | CC50 at 24 h (AC50 (uM) modified / 1000) [µM] | further results |
| --- | --- | --- |
| CCOC(=O)OC(C)OC(=O)[C@@H]1N2C(=O)[C@@H](NC(=O)[C@H](N)c3ccccc3)[C@H]2SC1(C)C (some centres unmarked) [Bacampicillin hydrochloride] | > 20 | – |
| CC(=O)CCC1=C(C)CCCC1(C)C [Dihydro-beta-ionone] | > 90 | – |
| NCC1CCCC(CN)C1 (centres unmarked) [1,3-Cyclohexanedimethanamine] | > 90 | – |
| Nc1ccc(S(=O)(=O)Nc2cnc3ccccc3n2)cc1 [Sulfaquinoxaline] | > 90 | – |
| Nc1ccc2ccccc2c1 [2-Naphthylamine] | – | CC50 at 24 h (AC50 (uM) modified / 1000, Tox21_110001=Tox21_202091, viability, 1 nM T3 present, 24 h): > 90 µM |
| CC(N)=O [Acetamide] | > 200 | – |
| c1ccc(-c2ccc(C(c3ccccc3)n3ccnc3)cc2)cc1 (centres unmarked) [Bifonazole] | 45.2 | – |
| O=C(NC(Cc1cc(=O)[nH]c2ccccc12)C(=O)O)c1ccc(Cl)cc1 (centres unmarked) [Rebamipide] | > 50 | – |
| O=Cc1cccc(Oc2ccccc2)c1 [3-Phenoxybenzaldehyde] | – | CC50 at 24 h (AC50 (uM) modified / 1000, Tox21_110001=Tox21_202368, viability, 1 nM T3 present, 24 h): > 90 µM |
| O=C(O[C@@H](C(=O)O)[C@@H](OC(=O)c1ccccc1)C(=O)O)c1ccccc1 [Dibenzoyl-L-tartaric acid] | > 90 | – |
| Nc1ccc2cc(S(=O)(=O)O)cc(O)c2c1 [6-Amino-4-hydroxynaphthalene-2-sulfonic acid] | > 90 | – |
| Nc1nnc(-c2cccc(Cl)c2Cl)c(N)n1 [Lamotrigine] | > 50 | – |
| CCOC(=O)CN[C@@H](C(=O)N1CC[C@H]1C(=O)NCc1ccc(/C(N)=N\O)cc1)C1CCCCC1 [Ximelagatran] | > 50 | – |
| CC12CC1(C)C(=O)N(c1cc(Cl)cc(Cl)c1)C2=O (centres unmarked) [Procymidone] | > 90 | – |
| CC[C@@]1(O)C[C@H](O[C@H]2C[C@H](N(C)C)[C@H](O[C@H]3C[C@H](O)[C@H](O[C@H]4CCC(=O)[C@H](C)O4)[C@H](C)O3)[C@H](C)O2)c2c(cc3c(c2O)C(=O)c2c(O)cccc2C3=O)[C@H]1C(=O)OC [Aclarubicin hydrochloride] | 0.114 | – |
| CN(C)c1ccc(Cc2ccc(N(C)C)cc2)cc1 [4,4'-Methylenebis(N,N-dimethylaniline)] | > 90 | – |
| Oc1ccccc1-c1ccccc1 [Sodium 2-phenylphenate tetrahydrate] | – | CC50 at 24 h (AC50 (uM) modified / 1000, Tox21_110001=Tox21_112097, viability, 1 nM T3 present, 24 h): > 50 µM |
| OCCCNc1ccccc1 [3-Anilinopropan-1-ol] | > 50 | – |
| Cc1ncc(CO)c(C=O)c1O [Pyridoxal] | > 50 | – |
| CCOc1ccc(C[C@H]2NC(=O)CCSSC[C@@H](C(=O)N3CCC[C@H]3C(=O)N[C@@H](CCCN)C(=O)NCC(N)=O)NC(=O)[C@H](CC(N)=O)NC(=O)[C@H]([C@@H](C)O)NC(=O)[C@H]([C@@H](C)CC)NC2=O)cc1 [Atosiban] ([Mpa][dY](Et)ITNCP[Orn]G-NH2; disulfide 1-6) | > 50 | – |
